Reference: PMC4527243, “Role of electrostatic interactions for ligand recognition and specificity of peptide transporters” (BMC Biology, 2015)
Where a SMILES comes first, the peptide text is derived from it.

T1: YePEPT (Yersinia enterocolitica, UniProt A0A2R9TD79)
T1 construct: gene YEP4_02370; full-length gene in pZUDF21-rbs-3C-10His, C-terminal HRV3C site and deca-His tag, expressed in E. coli BL21(DE3) pLysS; uptake in whole cells
T1 sequence (A0A2R9TD79 1-511): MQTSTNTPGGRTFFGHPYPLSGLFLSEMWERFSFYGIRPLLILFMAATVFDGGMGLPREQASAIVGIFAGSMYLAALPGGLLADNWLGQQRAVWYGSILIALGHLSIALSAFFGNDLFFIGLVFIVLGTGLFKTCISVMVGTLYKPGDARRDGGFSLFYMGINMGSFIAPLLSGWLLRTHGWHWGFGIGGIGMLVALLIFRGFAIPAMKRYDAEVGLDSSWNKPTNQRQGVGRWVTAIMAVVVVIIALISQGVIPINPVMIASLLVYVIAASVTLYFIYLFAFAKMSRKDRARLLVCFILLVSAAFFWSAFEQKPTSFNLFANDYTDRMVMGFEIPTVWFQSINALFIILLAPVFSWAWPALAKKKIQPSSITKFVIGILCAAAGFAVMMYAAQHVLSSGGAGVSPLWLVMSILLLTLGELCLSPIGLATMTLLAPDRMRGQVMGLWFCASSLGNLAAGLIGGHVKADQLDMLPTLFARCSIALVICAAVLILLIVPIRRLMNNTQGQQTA


What was measured:
YePEPT [1] = biological target: T1, YePEPT; test: competition of [3H]Ala-Ala uptake in E. coli cells; assay type: cell-based, Escherichia coli
YePEPT [2] = biological target: T1, YePEPT; test: competition of [3H]Ala-Ala uptake in E. coli cells; assay type: cell-based; details: 50 μM [3H]Ala-Ala, 2.5 mM competitor, pH 7.5, room temperature
[3] = substrate: C[C@H](N)C(=O)N[C@@H](C)C(=O)O; test: [3H]Ala-Ala uptake saturation in E. coli cells; assay type: cell-based, Yersinia enterocolitica; details: labelled compound, pH 7.5, 150 mM NaCl, room temperature, 100 s

Row | Molecule | Ki (YePEPT [1]) | further results
1 | C[C@H](NC(=O)[C@@H](N)CC(=O)O)C(=O)O [Asp-Ala] (H-Asp-Ala-OH) | ~80 µM | 
2 | C[C@H](NC(=O)[C@@H](N)CCC(=O)O)C(=O)O [Glu-Ala] (H-Glu-Ala-OH) | ~50 µM | 
3 | C[C@H](NC(=O)[C@@H](N)Cc1ccc(O)cc1)C(=O)O [Tyr-Ala] |  | competition of [3H]Ala-Ala uptake in E. coli cells (YePEPT [2]): YePEPT also displayed specificity for Ala-Tyr and Tyr-Ala at comparable levels
4 | YePEPT (Yersinia enterocolitica subsp. palearctica YE-P4) (protein, full-length gene in pZUDF21-rbs-3C-10His, C-terminal HRV3C site and deca-His tag, expressed in E. coli BL21(DE3) pLysS; uptake in whole cells) MQTSTNTPGGRTFFGHPYPLSGLFLSEMWERFSFYGIRPLLILFMAATVFDGGMGLPREQASAIVGIFAGSMYLAALPGGLLADNWLGQQRAVWYGSILIALGHLSIALSAFFGNDLFFIGLVFIVLGTGLFKTCISVMVGTLYKPGDARRDGGFSLFYMGINMGSFIAPLLSGWLLRTHGWHWGFGIGGIGMLVALLIFRGFAIPAMKRYDAEVGLDSSWNKPTNQRQGVGRWVTAIMAVVVVIIALISQGVIPINPVMIASLLVYVIAASVTLYFIYLFAFAKMSRKDRARLLVCFILLVSAAFFWSAFEQKPTSFNLFANDYTDRMVMGFEIPTVWFQSINALFIILLAPVFSWAWPALAKKKIQPSSITKFVIGILCAAAGFAVMMYAAQHVLSSGGAGVSPLWLVMSILLLTLGELCLSPIGLATMTLLAPDRMRGQVMGLWFCASSLGNLAAGLIGGHVKADQLDMLPTLFARCSIALVICAAVLILLIVPIRRLMNNTQGQQTA |  | Km [3]: 200 µM
